How the values were obtained:
Test in all cases: relative viability (nuclei count vs DMSO), 5 days (fraction); higher = more cells survive
[1] = compound: CO[C@@H]1[C@H](N(C)C(=O)c2ccccc2)C[C@H]2O[C@]1(C)n1c3ccccc3c3c4c(c5c6ccccc6n2c5c31)C(=O)NC4 [Midostaurin] + Cc1nc(NC(=O)N2CCC[C@H]2C(N)=O)sc1-c1ccnc(C(C)(C)C(F)(F)F)c1 [Alpelisib] (partner 2 µM)
Method in brief: (§1)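 Lung cancer cell lines, seeded in 1536-well plates, were treated the following day by pin tool with a single drug or with five library-drug doses (not always all listed) in √10 steps on top of a fixed anchor-drug dose. Cells were fixed and nuclei stained in one step after 5 days, and nuclei were counted. Relative viability is the nuclei count for treated wells divided by that for vehicle wells, reported as medians of duplicate plates.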

[2] = compound: CO[C@@H]1[C@H](N(C)C(=O)c2ccccc2)C[C@H]2O[C@]1(C)n1c3ccccc3c3c4c(c5c6ccccc6n2c5c31)C(=O)NC4 [Midostaurin] + CCNC(=O)c1noc(-c2cc(C(C)C)c(O)cc2O)c1-c1ccc(CN2CCOCC2)cc1 [Luminespib] (partner 0.01 µM)
Method in brief: as §1

[3] = compound: CO[C@@H]1[C@H](N(C)C(=O)c2ccccc2)C[C@H]2O[C@]1(C)n1c3ccccc3c3c4c(c5c6ccccc6n2c5c31)C(=O)NC4 [Midostaurin] + O=C(CCCCCCC(=O)Nc1ccccc1)NO [Vorinostat] (partner 1 µM)
Method in brief: as §1

[4] = compound: CO[C@@H]1[C@H](N(C)C(=O)c2ccccc2)C[C@H]2O[C@]1(C)n1c3ccccc3c3c4c(c5c6ccccc6n2c5c31)C(=O)NC4 [Midostaurin] + COc1cc2c(Oc3ccc(NC(=O)C4(C(=O)Nc5ccc(F)cc5)CC4)cc3F)ccnc2cc1OCCCN1CCOCC1 [Foretinib] (partner 0.25 µM)
Method in brief: as §1

[5] = compound: COc1cc(-c2nn([C@H]3CC[C@H](N4CCN(C(C)=O)CC4)CC3)c3ncnc(N)c23)ccc1NC(=O)c1cc2ccccc2n1C + O=C(CCCCCCC(=O)Nc1ccccc1)NO [Vorinostat] (partner 1 µM)
Method in brief: as §1

UMC-11
relative viability ([1]; first compound 0.01 µM): 1.04
relative viability ([1]; first compound 0.03162 µM): 0.915
relative viability ([1]; first compound 0.1 µM): 0.792
relative viability ([1]; first compound 0.3162 µM): 0.375
relative viability ([2]; first compound 0.01 µM): 1.02
relative viability ([2]; first compound 0.03162 µM): 0.849
relative viability ([2]; first compound 0.1 µM): 0.932
relative viability ([2]; first compound 0.3162 µM): 0.463
relative viability ([3]; first compound 0.01 µM): 0.424
relative viability ([3]; first compound 0.03162 µM): 0.445
relative viability ([3]; first compound 0.1 µM): 0.242
relative viability ([3]; first compound 0.3162 µM): 0.187
relative viability ([4]; first compound 0.01 µM): 1.08
relative viability ([4]; first compound 0.03162 µM): 0.946
relative viability ([4]; first compound 0.1 µM): 0.868
relative viability ([4]; first compound 0.3162 µM): 0.234
relative viability ([5]; first compound 0.0128 µM): 0.44
relative viability ([5]; first compound 0.04048 µM): 0.38
relative viability ([5]; first compound 0.128 µM): 0.351
relative viability ([5]; first compound 1.28 µM): 0.342

— the supplement of paper PMC10307832
